The values that follow come from patent publication US20260327214A1, “1,3,4-OXADIAZOLE DERIVATIVE COMPOUNDS AS HISTONE DEACETYLASE 6 INHIBITOR, AND USES THEREOF” (CHONG KUN DANG PHARMACEUTICAL CORP., priority 2022, published 2026).

Structures are written as SMILES.

Assay [1] concerns the target T1, human recombinant HDAC1 (Homo sapiens, UniProt Q13547).
T1 construct: purchased Enzo Life Science BML-SE456
The assay can be described thus: HDAC1 enzyme activity inhibition test (HDAC Fluorometric Drug Discovery Kit). Format: biochemical. As to conditions: 30° C., 60 minutes, 10 μM substrate. The essentials: (§1)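 IC50 derived from fluorescence (Ex 360, Em 460) following 30 min development with Developer II. Each reaction held 0.3 μg human recombinant HDAC1 or HDAC6, 10 μM Fluor de Lys SIRT1 substrate and 5-fold serially diluted compound, incubated 60 min at 30 °C.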

Assay [2] concerns the target T2, human recombinant HDAC6 (Homo sapiens, UniProt Q9UBN7).
T2 construct: purchased Calbiochem 382180
T2 sequence (Q9UBN7 1-1215): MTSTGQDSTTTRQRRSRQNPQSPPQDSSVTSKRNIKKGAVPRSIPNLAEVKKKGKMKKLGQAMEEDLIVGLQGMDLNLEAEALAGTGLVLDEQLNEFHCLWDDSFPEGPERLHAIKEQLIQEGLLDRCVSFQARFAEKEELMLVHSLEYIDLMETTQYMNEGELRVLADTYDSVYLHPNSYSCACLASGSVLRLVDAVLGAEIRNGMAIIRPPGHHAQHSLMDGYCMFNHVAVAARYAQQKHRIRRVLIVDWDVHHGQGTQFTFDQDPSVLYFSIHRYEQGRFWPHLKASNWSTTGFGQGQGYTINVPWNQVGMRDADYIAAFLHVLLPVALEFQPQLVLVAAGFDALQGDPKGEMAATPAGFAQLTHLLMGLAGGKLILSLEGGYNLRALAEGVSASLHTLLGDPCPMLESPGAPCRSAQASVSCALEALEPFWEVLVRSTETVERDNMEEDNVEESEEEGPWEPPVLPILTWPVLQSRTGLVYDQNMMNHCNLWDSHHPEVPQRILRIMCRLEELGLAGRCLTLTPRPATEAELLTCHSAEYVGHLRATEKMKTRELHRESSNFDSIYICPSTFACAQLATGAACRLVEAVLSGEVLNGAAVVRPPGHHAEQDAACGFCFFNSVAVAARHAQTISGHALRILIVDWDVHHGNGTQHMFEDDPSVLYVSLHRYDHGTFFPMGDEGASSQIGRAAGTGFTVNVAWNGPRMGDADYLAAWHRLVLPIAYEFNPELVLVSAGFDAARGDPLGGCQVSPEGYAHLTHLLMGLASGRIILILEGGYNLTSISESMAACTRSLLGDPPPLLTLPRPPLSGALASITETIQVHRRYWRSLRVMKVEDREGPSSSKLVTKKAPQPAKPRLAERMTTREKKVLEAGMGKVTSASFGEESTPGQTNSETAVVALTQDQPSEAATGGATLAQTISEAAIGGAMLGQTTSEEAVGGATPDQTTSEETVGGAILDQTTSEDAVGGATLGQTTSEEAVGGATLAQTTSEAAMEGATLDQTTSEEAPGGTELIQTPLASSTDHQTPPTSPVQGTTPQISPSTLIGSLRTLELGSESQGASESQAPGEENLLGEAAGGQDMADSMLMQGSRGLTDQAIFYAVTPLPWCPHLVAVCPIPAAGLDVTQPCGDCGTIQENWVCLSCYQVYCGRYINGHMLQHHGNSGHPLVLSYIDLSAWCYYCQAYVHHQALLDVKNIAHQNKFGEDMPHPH
Description: HDAC6 enzyme activity inhibition test (HDAC Fluorometric Drug Discovery Kit). It counts as biochemical. As to conditions: for HDAC6 selectivity (fold): HDAC6 over HDAC1; for IC50: human recombinant HDAC6, same protocol as HDAC1. Put shortly: as §1

T1 sequence (Q13547 whole entry): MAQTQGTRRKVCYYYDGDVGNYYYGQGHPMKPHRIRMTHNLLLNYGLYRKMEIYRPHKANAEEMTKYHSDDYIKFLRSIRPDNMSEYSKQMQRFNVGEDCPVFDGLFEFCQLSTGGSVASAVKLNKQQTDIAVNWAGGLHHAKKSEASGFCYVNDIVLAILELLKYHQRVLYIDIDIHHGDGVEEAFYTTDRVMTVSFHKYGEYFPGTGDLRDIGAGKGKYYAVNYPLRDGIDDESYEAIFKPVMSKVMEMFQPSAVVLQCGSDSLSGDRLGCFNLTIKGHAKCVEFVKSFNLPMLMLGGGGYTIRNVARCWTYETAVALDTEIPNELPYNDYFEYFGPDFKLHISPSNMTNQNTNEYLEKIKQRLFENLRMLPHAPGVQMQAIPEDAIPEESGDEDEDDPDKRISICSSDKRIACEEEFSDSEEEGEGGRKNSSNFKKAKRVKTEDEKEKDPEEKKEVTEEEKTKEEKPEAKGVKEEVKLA

`CC(C)N1CCC(c2ccc(-c3nn(Cc4ccc(-c5nnc(C(F)F)o5)cn4)c(=O)s3)cc2)CC1` [Compound 55, 3-[[5-[5-(difluoromethyl)-1,3,4-oxadiazol-2-yl]-2-pyridyl]methyl]-5-[4-(1-isopropyl-4-piperidyl)phenyl]-1,3,4-thiadiazol-2-one]: the half-inhibitory concentration (IC50) (usually the midpoint of a concentration-inhibition curve) in assay [1] was over 50000 nM. For the same compound, in assay [2], the “HDAC6 selectivity (fold)” value is reported as 634 fold and the IC50 amounted to 78.9 nM.

Consider `O=c1sc(-c2ccc(C3CCN(C4COC4)CC3)cc2)nn1Cc1ccc(-c2nnc(C(F)F)o2)cn1` [Compound 56, 3-[[5-[5-(difluoromethyl)-1,3,4-oxadiazol-2-yl]-2-pyridyl]methyl]-5-[4-[1-(oxetane-3-yl)-4-piperidyl]phenyl]-1,3,4-thiadiazol-2-one], for which the figures for the concentration for half-maximal inhibition (IC50) in assay [1] and in assay [2] were over 50000 nM and 118 nM, respectively. Besides, the “HDAC6 selectivity (fold)” value in assay [2] is on record as 422 fold.

With `CC(C)N1CCC(c2cccc(-c3nn(Cc4ccc(-c5nnc(C(F)F)o5)cn4)c(=O)s3)c2F)CC1` [Compound 57, 3-[[5-[5-(difluoromethyl)-1,3,4-oxadiazol-2-yl]-2-pyridyl]methyl]-5-[2-fluoro-3-(1-isopropyl-4-piperidyl)phenyl]-1,3,4-thiadiazol-2-one], the IC50 in assay [1] was over 50000 nM. In assay [2], the “HDAC6 selectivity (fold)” value is on record as 954 fold and the 50% inhibitory concentration (IC50) came out at 52.4 nM.

On to `O=c1sc(-c2cccc(C3CCN(C4COC4)CC3)c2F)nn1Cc1ccc(-c2nnc(C(F)F)o2)cn1` [Compound 58, 3-[[5-[5-(difluoromethyl)-1,3,4-oxadiazol-2-yl]-2-pyridyl]methyl]-5-[2-fluoro-3-[1-(oxetane-3-yl)-4-piperidyl]phenyl]-1,3,4-thiadiazol-2-one], for which the IC50 in assay [1] is over 50000 nM; in assay [2], 77.8 nM. The “HDAC6 selectivity (fold)” value in assay [2] was found to be 643 fold.

On to `Cc1nc(-c2nn(Cc3ccc(-c4nnc(C(F)F)o4)cn3)c(=S)o2)cs1` [Compound 59, 3-[[5-[5-(difluoromethyl)-1,3,4-oxadiazol-2-yl]-2-pyridyl]methyl]-5-(2-methylthiazol-4-yl)-1,3,4-oxadiazol-2-thione], for which the IC50 in assay [1] is over 50000 nM. In addition, in assay [2], the “HDAC6 selectivity (fold)” value worked out at 669 fold and the IC50 was determined as 74.7 nM.

On to `Cc1nc(-c2nn(Cc3ncc(-c4nnc(C(F)F)o4)cc3F)c(=S)o2)cs1` [Compound 60, 3-[[5-[5-(difluoromethyl)-1,3,4-oxadiazol-2-yl]-3-fluoro-2-pyridyl]methyl]-5-(2-methylthiazol-4-yl)-1,3,4-oxadiazol-2-thione], for which the IC50 was over 50000 nM in assay [1] and 81.4 nM in assay [2]. The “HDAC6 selectivity (fold)” value in assay [2] is recorded as 614 fold.

With `Cc1ncc(-c2nn(Cc3ncc(-c4nnc(C(F)F)o4)cc3F)c(=S)o2)s1` [Compound 61, 3-[[5-[5-(difluoromethyl)-1,3,4-oxadiazol-2-yl]-3-fluoro-2-pyridyl]methyl]-5-(2-methylthiazol-5-yl)-1,3,4-oxadiazol-2-thione], the IC50 in assay [1] was over 50000 nM. For the same compound, in assay [2], the “HDAC6 selectivity (fold)” value turned out to be 540 fold and the concentration for half-maximal inhibition (IC50) amounted to 92.6 nM.

`Fc1cc(-c2nnc(C(F)F)o2)cnc1Cn1nc(-c2cccnc2)oc1=S` [Compound 62, 3-[[5-[5-(difluoromethyl)-1,3,4-oxadiazol-2-yl]-3-fluoro-2-pyridyl]methyl]-5-(3-pyridyl)-1,3,4-oxadiazol-2-thione]: the concentration for half-maximal inhibition (IC50) in assay [1] is over 50000 nM. In addition, in assay [2], the “HDAC6 selectivity (fold)” value is recorded as 500 fold and the half-inhibitory concentration (IC50) is 100 nM.

`CC(C)N1CCN(Cc2cccc(-c3nn(Cc4ccc(-c5nnc(C(F)F)o5)cn4)c(=O)s3)c2)CC1` [Compound 63, 3-[[5-[5-(difluoromethyl)-1,3,4-oxadiazol-2-yl]-2-pyridyl]methyl]-5-[3-[(4-isopropylpiperazin-1-yl)methyl]phenyl]-1,3,4-thiadiazol-2-one]: in assay [1], the 50% inhibitory concentration (IC50) was over 50000 nM. In assay [2], the “HDAC6 selectivity (fold)” value is on record as 620 fold and the IC50 amounted to 80.7 nM.

In the case of `O=c1sc(-c2cccc(CN3CCN(C4CCC4)CC3)c2)nn1Cc1ccc(-c2nnc(C(F)F)o2)cn1` [Compound 64, 5-[3-[(4-cyclobutylpiperazin-1-yl)methyl]phenyl]-3-[[5-[5-(difluoromethyl)-1,3,4-oxadiazol-2-yl]-2-pyridyl]methyl]-1,3,4-thiadiazol-2-one], the concentration for half-maximal inhibition (IC50) in assay [1] was over 50000 nM. In assay [2], the “HDAC6 selectivity (fold)” value is listed as 418 fold and the IC50 was determined as 120 nM.

Turning to `O=c1sc(-c2cccc(CN3CCN(C4CS(=O)(=O)C4)CC3)c2)nn1Cc1ccc(-c2nnc(C(F)F)o2)cn1` [Compound 65, 3-[[5-[5-(difluoromethyl)-1,3,4-oxadiazol-2-yl]-2-pyridyl]methyl]-5-[3-[[4-(1,1-dioxothietan-3-yl)piperazin-1-yl]methyl]phenyl]-1,3,4-thiadiazol-2-one], the 50% inhibitory concentration (IC50) in assay [1] is over 50000 nM. Also, in assay [2], the “HDAC6 selectivity (fold)” value stood at 537 fold and the IC50 came out at 93.1 nM.

Regarding `CC(C)N1CCN(Cc2ccc(-c3nn(Cc4ccc(-c5nnc(C(F)F)o5)cn4)c(=O)s3)cc2)CC1` [Compound 66], the IC50 was over 50000 nM in assay [1] and 33.4 nM in assay [2]. The “HDAC6 selectivity (fold)” value in assay [2] is given as 1497 fold.

On to `O=c1sc(-c2ccc(CN3CCN(C4CCC4)CC3)cc2)nn1Cc1ccc(-c2nnc(C(F)F)o2)cn1` [Compound 67], for which the IC50 in assay [1] is over 50000 nM; in assay [2], 56.2 nM. For the same compound, in assay [2], the “HDAC6 selectivity (fold)” value turned out to be 890 fold.

Consider `O=c1sc(-c2ccc(CN3CCN(C4CS(=O)(=O)C4)CC3)cc2)nn1Cc1ccc(-c2nnc(C(F)F)o2)cn1` [Compound 68], for which the IC50 in assay [1] was over 50000 nM. Besides, in assay [2], the “HDAC6 selectivity (fold)” value is 473 fold and the IC50 was determined as 106 nM.

Regarding `O=C1OCC(c2cccs2)=NN1Cc1ccc(-c2nnc(C(F)F)o2)cn1` [Compound 69, 3-[[5-[5-(difluoromethyl)-1,3,4-oxadiazol-2-yl]-2-pyridyl]methyl]-5-(2-thienyl)-6H-1,3,4-oxadiazin-2-one], the IC50 in assay [1] was over 50000 nM. Also, in assay [2], the “HDAC6 selectivity (fold)” value was 434 fold and the half-inhibitory concentration (IC50) is 115 nM.

Take `O=C1OCC(c2cccs2)=NN1Cc1ncc(-c2nnc(C(F)F)o2)cc1F` [Compound 70, 3-[[5-[5-(difluoromethyl)-1,3,4-oxadiazol-2-yl]-3-fluoro-2-pyridyl]methyl]-5-(2-thienyl)-6H-1,3,4-oxadiazin-2-one]: the concentration for half-maximal inhibition (IC50) in assay [1] is over 50000 nM. Besides, in assay [2], the “HDAC6 selectivity (fold)” value was determined as 460 fold and the 50% inhibitory concentration (IC50) came to 109 nM.

Take `O=C1OCC(c2ccccc2)=NN1Cc1ncc(-c2nnc(C(F)F)o2)cc1F` [Compound 71, 3-[[5-[5-(difluoromethyl)-1,3,4-oxadiazol-2-yl]-3-fluoro-2-pyridyl]methyl]-5-phenyl-6H-1,3,4-oxadiazin-2-one]: the 50% inhibitory concentration (IC50) was over 50000 nM in assay [1] and 98 nM in assay [2]. Besides, in assay [2], the “HDAC6 selectivity (fold)” value was 510 fold.

In the case of `O=C1OCC(c2ccccn2)=NN1Cc1ccc(-c2nnc(C(F)F)o2)cn1` [Compound 72, 3-[[5-[5-(difluoromethyl)-1,3,4-oxadiazol-2-yl]-2-pyridyl]methyl]-5-(2-pyridyl)-6H-1,3,4-oxadiazin-2-one], the half-inhibitory concentration (IC50) was over 50000 nM in assay [1] and 119 nM in assay [2]. Moreover, the “HDAC6 selectivity (fold)” value in assay [2] was determined as 420 fold.

`O=C1OCC(c2ccccn2)=NN1Cc1ncc(-c2nnc(C(F)F)o2)cc1F` [Compound 73, 3-[[5-[5-(difluoromethyl)-1,3,4-oxadiazol-2-yl]-3-fluoro-2-pyridyl]methyl]-5-(2-pyridyl)-6H-1,3,4-oxadiazin-2-one]: the IC50 in assay [1] is over 50000 nM. Further, in assay [2], the “HDAC6 selectivity (fold)” value is reported as 442 fold and the IC50 was 113 nM.

`O=C1OCC(c2ccc(-c3ccccn3)s2)=NN1Cc1ccc(-c2nnc(C(F)F)o2)cn1` [Compound 74, 3-[[5-[5-(difluoromethyl)-1,3,4-oxadiazol-2-yl]-2-pyridyl]methyl]-5-[5-(2-pyridyl)-2-thienyl]-6H-1,3,4-oxadiazin-2-one]: the IC50 in assay [1] was over 50000 nM. In assay [2], the “HDAC6 selectivity (fold)” value was 828 fold and the concentration for half-maximal inhibition (IC50) was 60.4 nM.
